Measurements: article PMC6001238, “Iterative Chemical Engineering of Vancomycin Leads to Novel Vancomycin Analogs With a High in Vitro Therapeutic Index” (Frontiers in Microbiology, 2018)
Converted amounts (≈) assume the structure as drawn.

Assays:
E. faecalis VSE 1 = test: MIC, broth microdilution, vancomycin-sensitive E. faecalis (VSE 1); assay type: cell-based, Enterococcus faecalis; conditions: for MIC: Enterococcus faecalis VSE 1 (vancomycin-sensitive), read-out: MIC; for MIC-fold improvement vs. vancomycin: VSE 1, ratio of MIC of vancomycin and MIC of analogue
Method in brief: (§1)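 Susceptibility was scored by broth microdilution (CLSI). In one instance each vancomycin analog or control antibiotic was tested in the presence of vancomycin, 10 μM final, and ultrapure water plus non-inoculated broth were included as controls.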

E. faecalis VRE 6 = test: MIC, broth microdilution, vancomycin-resistant E. faecalis VRE 6 (VanA); assay type: cell-based, Enterococcus faecalis; conditions: for MIC: Enterococcus faecalis VRE 6 (vancomycin-resistant), read-out: MIC; for MIC-fold improvement vs. vancomycin: VRE 6, ratio of MIC of vancomycin and MIC of analogue
Method in brief: as §1

E. faecalis VRE 53 = test: MIC, broth microdilution, vancomycin-resistant E. faecalis VRE 53 (VanA); assay type: cell-based, Enterococcus faecalis; conditions: for MIC: Enterococcus faecalis VRE 53 (vancomycin-resistant), read-out: MIC; for MIC-fold improvement vs. vancomycin: VRE 53, ratio of MIC of vancomycin and MIC of analogue
Method in brief: as §1

E. faecalis VRE 29 = test: MIC, broth microdilution, vancomycin-resistant E. faecalis VRE 29 (VanA); assay type: cell-based, Enterococcus faecalis; conditions: for MIC: Enterococcus faecalis VRE 29 (vancomycin-resistant), read-out: MIC; for MIC-fold improvement vs. vancomycin: VRE 29, ratio of MIC of vancomycin and MIC of analogue
Method in brief: as §1

E. faecalis VRE 37 = test: MIC, broth microdilution, vancomycin-resistant E. faecalis VRE 37 (VanA); assay type: cell-based, Enterococcus faecalis; conditions: for MIC: Enterococcus faecalis VRE 37 (vancomycin-resistant), read-out: MIC; for MIC-fold improvement vs. vancomycin: VRE 37, ratio of MIC of vancomycin and MIC of analogue
Method in brief: as §1

[1] = tested on: Murine leukemia (L1210) cells; test: Cytostatic activity, L1210 cell proliferation; assay type: cell-based; conditions: mean ± SD of three experiments; highest concentration tested 250 µM; 2 days; read-out: Toxicity (IC50) L1210
Method in brief: (§2)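 Suspensions (300,000–500,000 cells/mL) combined with equal volumes of diluted compound; 37°C; L1210 2 d / CEM 3 d / HeLa 4 d; counted by Coulter counter; IC50 vs untreated wells.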

[2] = tested on: human T-lymphocyte (CEM) cells; test: Cytostatic activity, CEM cell proliferation; assay type: cell-based; conditions: mean ± SD of three experiments; highest concentration tested 250 µM; 3 days; read-out: Toxicity (IC50) CEM
Method in brief: as §2

[3] = tested on: human cervix carcinoma (HeLa) cells; test: Cytostatic activity, HeLa cell proliferation; assay type: cell-based; conditions: mean ± SD of three experiments; highest concentration tested 250 µM; 4 days; read-out: Toxicity (IC50) HeLa
Method in brief: as §2

[4] = tested on: L1210, CEM and HeLa cell lines; test: Cytostatic activity, average or summary over L1210, CEM and HeLa; assay type: cell-based; conditions: average of L1210, CEM and HeLa; read-out: Toxicity (IC50) Average
Method in brief: as §2

[5] = tested on: S. aureus VSSA (ATCC 6538); test: MIC, broth microdilution, vancomycin-sensitive S. aureus (VSSA/MSSA, ATCC 6538); assay type: cell-based, Staphylococcus aureus; conditions: for MIC: Staphylococcus aureus VSSA, read-out: MIC; for MIC-fold improvement vs. vancomycin: VSSA, ratio of MIC of vancomycin and MIC of analogue
Method in brief: as §1

S. aureus VISA/HIP5827 = test: MIC, broth microdilution, vancomycin-intermediate S. aureus VISA HIP5827; assay type: cell-based, Staphylococcus aureus; conditions: for MIC: Staphylococcus aureus VISA/HIP5827, read-out: MIC; for MIC-fold improvement vs. vancomycin: VISA/HIP5827, ratio of MIC of vancomycin and MIC of analogue
Method in brief: as §1

S. aureus VRSA = test: MIC, broth microdilution, vancomycin-resistant S. aureus (VRSA); assay type: cell-based, Staphylococcus aureus; conditions: for MIC: Staphylococcus aureus VRSA, read-out: MIC; for MIC-fold improvement vs. vancomycin: VRSA, ratio of MIC of vancomycin and MIC of analogue
Method in brief: as §1

MRSA KS2 = test: MIC, broth microdilution, MRSA KS2; assay type: cell-based, Staphylococcus aureus; conditions: for MIC-fold improvement vs. vancomycin: MRSA KS2, ratio of MIC of vancomycin and MIC of analogue; for MIC: Staphylococcus aureus MRSA KS2, read-out: MIC
Method in brief: as §1

MRSA KS6 = test: MIC, broth microdilution, MRSA KS6; assay type: cell-based, Staphylococcus aureus; conditions: for MIC-fold improvement vs. vancomycin: MRSA KS6, ratio of MIC of vancomycin and MIC of analogue; for MIC: Staphylococcus aureus MRSA KS6, read-out: MIC
Method in brief: as §1

MRSA KS89 = test: MIC, broth microdilution, MRSA KS89; assay type: cell-based, Staphylococcus aureus; conditions: for MIC-fold improvement vs. vancomycin: MRSA KS8, ratio of MIC of vancomycin and MIC of analogue; for MIC: Staphylococcus aureus MRSA KS8, read-out: MIC
Method in brief: as §1

MRSA KS1 = test: MIC, broth microdilution, MRSA KS1; assay type: cell-based, Staphylococcus aureus; conditions: for MIC-fold improvement vs. vancomycin: MRSA KS1, ratio of MIC of vancomycin and MIC of analogue; for MIC: Staphylococcus aureus MRSA KS1, read-out: MIC
Method in brief: as §1

Compound	MIC (E. faecalis VSE 1) [µM]	MIC-fold improvement vs. vancomycin (E. faecalis VSE 1)	MIC (E. faecalis VRE 6) [µM]	MIC-fold improvement vs. vancomycin (E. faecalis VRE 6)	MIC (E. faecalis VRE 53) [µM]	MIC-fold improvement vs. vancomycin (E. faecalis VRE 53)	MIC (E. faecalis VRE 29) [µM]	MIC-fold improvement vs. vancomycin (E. faecalis VRE 29)	MIC (E. faecalis VRE 37) [µM]	MIC-fold improvement vs. vancomycin (E. faecalis VRE 37)	IC50 [1] [µM]	IC50 [2] [µM]	IC50 [3] [µM]	IC50 [4] [µM]	MIC [5] [µM]	MIC-fold improvement vs. vancomycin [5]	MIC (S. aureus VISA/HIP5827) [µM]	MIC-fold improvement vs. vancomycin (S. aureus VISA/HIP5827)	MIC (S. aureus VRSA) [µM]	MIC-fold improvement vs. vancomycin (S. aureus VRSA)	also measured
CCCCCCc1ccc(NC(=O)CNC(=O)[C@H]2NC(=O)[C@H]3NC(=O)[C@H](NC(=O)[C@@H]4NC(=O)[C@H](CC(N)=O)NC(=O)[C@H](NC(=O)[C@@H](CC(C)C)NC)[C@H](O)c5ccc(c(Cl)c5)Oc5cc4cc(c5O[C@@H]4O[C@H](CO)[C@@H](O)[C@H](O)[C@H]4O[C@H]4C[C@](C)(N)[C@H](O)[C@H](C)O4)Oc4ccc(cc4Cl)[C@H]3O)c3ccc(O)c(c3)-c3c(O)cc(O)cc32)cc1 [Vanc-75]	0.78 (≈ 1.3 µg/mL)	2	3.13 (≈ 5.21 µg/mL)	64	3.13 (≈ 5.21 µg/mL)	128	3.13 (≈ 5.21 µg/mL)	128	3.13 (≈ 5.21 µg/mL)	128	17 ± 7	15 ± 3	83 ± 4	38	0.78 (≈ 1.3 µg/mL)	1	0.78 (≈ 1.3 µg/mL)	8	1.56 (≈ 2.6 µg/mL)	64	MIC-fold improvement vs. vancomycin (MRSA KS2): 4; MIC (MRSA KS2): 0.20 µM (≈ 0.333 µg/mL); MIC-fold improvement vs. vancomycin (MRSA KS6): 2; MIC (MRSA KS6): 0.39 µM (≈ 0.65 µg/mL); MIC-fold improvement vs. vancomycin (MRSA KS89): 4; MIC (MRSA KS89): 0.20 µM (≈ 0.333 µg/mL); MIC-fold improvement vs. vancomycin (MRSA KS1): 4; MIC (MRSA KS1): 0.20 µM (≈ 0.333 µg/mL)
CNC(CC(C)C)C(=O)NC1C(=O)NC(CC(N)=O)C(=O)NC2C(=O)NC3C(=O)NC(C(=O)NC(C(=O)NCC(=O)Nc4ccc(-c5cn(-c6ccc(C)cc6)nn5)cc4)c4cc(O)cc(O)c4-c4cc3ccc4O)C(O)c3ccc(c(Cl)c3)Oc3cc2cc(c3OC2OC(CO)C(O)C(O)C2OC2CC(C)(N)C(O)C(C)O2)Oc2ccc(cc2Cl)C1O (centres unmarked) [Vanc-76]	0.78 (≈ 1.36 µg/mL)	2	1.56 (≈ 2.71 µg/mL)	128	3.13 (≈ 5.44 µg/mL)	128	3.13 (≈ 5.44 µg/mL)	128	3.13 (≈ 5.44 µg/mL)	128	11 ± 7	3.2 ± 0.6	17 ± 2	10	0.39 (≈ 0.678 µg/mL)	2	0.78 (≈ 1.36 µg/mL)	8	0.78 (≈ 1.36 µg/mL)	128	MIC-fold improvement vs. vancomycin (MRSA KS2): 4; MIC (MRSA KS2): 0.20 µM (≈ 0.348 µg/mL); MIC-fold improvement vs. vancomycin (MRSA KS6): 4; MIC (MRSA KS6): 0.20 µM (≈ 0.348 µg/mL); MIC-fold improvement vs. vancomycin (MRSA KS89): 4; MIC (MRSA KS89): 0.20 µM (≈ 0.348 µg/mL); MIC-fold improvement vs. vancomycin (MRSA KS1): >8; MIC (MRSA KS1): <0.10 µM
